According to patent publication US20250297036A1, “METHOD FOR CO[…]-DERIVED PEPTIDE-NUCLEIC ACID HYBRID MOLECULES ON BASIS OF IN VITRO SELECTION” (priority 2022, published 2025):

Assays:
pseudotype SARS-CoV-2 = format: cell-based
SARS-CoV-2 RBD = SARS-CoV-2 RBD (Severe acute respiratory syndrome coronavirus 2, UniProt P0DTC2)
[1] = molecular target: SARS-CoV-2 RBD, wild type (SARS-CoV-2), P0DTC2
[2] = molecular target: SARS-CoV-2 spike protein on GFP-reporting pseudotype SARS-CoV-2 (SARS-CoV-2), P0DTC2; experiment: cell-based or functional assay

LGKGDFR [LGKGDFR peptide]
infection rate with pseudotype SARS-CoV-2 (percentage of infected cells) (pseudotype SARS-CoV-2): 12.6%

R7-02 (GGAAGAGATGGCGACACGCAATCGTGGGTTGGGGATATAATGGTAAGCTGATCCTGATGG; 5' hexynyl group, further chemistry not given here)
infection rate with pseudotype SARS-CoV-2 (percentage of infected cells) (pseudotype SARS-CoV-2): 1.9% | competition with P05DHu and AM122 antibodies (SARS-CoV-2 RBD): insignificant

LGKGDFRK (modifications not checked) [LGKGDFR peptide (hACE2-derived hotspot peptide, not conjugated to DNA)]
% inhibition of RBD-hACE2 interaction [1]: 11.7% | infection rate with pseudotype SARS-CoV-2 (GFP-expressing hACE2-293T cells) [2]: 12.6%
